The source of these data is patent publication US10828331B2, “Cellular compositions used to restore stem cell or progenitor cell function and methods related thereto” (Emory University, priority 2012, dated 2020).

Assay [1] relates to mouse neural progenitors and mouse embryonic fibroblasts. To be noted: in combination with two factors (Oct4 and Klf4); cited from earlier work.
In another assay the test system is diabetic MSCs. In words: real-time RT-PCR of angiogenic genes in compound-treated diabetic MSCs. It counts as cell-based, rat. Particulars: D-MSCs treated with epigenetic compounds for 7 days, FIG. 1. The protocol:
To reprogram diabetic MSCs with epigenetic compounds, cultured D-MSCs were treated with HDAC inhibitor: Vorinostat or suberoylanilide hydroxamic acid (SAHA); DNA methyltransferase inhibitor: Decitabine (trade name Dacogen), or 5-aza-2′-deoxycytidine (5-aza); multiple histone 3 lysine 9 (H3K9) methyltransferases G9a and GLP inhibitor: BIX-01294; and GSK3β inhibitor: CHIR99021 for 7 more days. N-MSCs and D-MSCs were cultured by a standard MSC culture method. The cultured MSCs are typically reseeded at day 4 and cultured for another 4 days. To examine the expression levels of angiogenic genes, we isolated RNAs from N-, D-, or epigenetic compound treated reprogrammed D-MSCs (RD-MSCs), and performed real-time RT-PCR with specific primers of angiogenic genes.
Diabetes was induced in 8 week-old male Fischer 344 rats by intravenous injection of streptozotocin ([…]). Blood glucose levels were measured using an Accu-Check glucometer (Roche, Indianapolis, Ind.) after one week and two months. […]
Gene expression was determined by TaqMan® real-time quantitative PCR on the 7300 Sequence Detection System (Applied Biosystems) using TaqMan® PCR Master Mix (Applied Biosystems). […] Relative mRNA expression of target gene normalized to GAPDH was calculated by using the formula Relative Expression Level=2−ΔCt, where ΔCt=Ct gene of interest−Ct GAPDH. […]
For orientation: Quantitative PCR measures a nucleic acid by following its amplification.

For the molecule `COc1cc2nc(N3CCCN(C)CC3)nc(NC3CCN(Cc4ccccc4)CC3)c2cc1OC` [BIX01294], the reprogramming efficiency entry in assay [1] is recorded as “enhanced the reprogramming efficiency”.

For `COC(=O)C1=C(C)NC(C)=C([N+](=O)[O-])C1c1ccccc1C(F)(F)F` (stereo not drawn) [BayK8644, 1,4-dihydro-2,6-dimethyl-5-nitro-4-[2-(trifluoromethyl)phenyl]-3-pyridinecarboxylic acid, methyl ester], in assay [1], the reprogramming efficiency result is reported as “enhanced the reprogramming efficiency”.

`O=C(CCCCCCC(=O)Nc1ccccc1)NO` [SAHA, suberoylanilide hydroxamic acid]: in the assay on diabetic MSCs, the “expression of major angiogenic genes” value is on record as “significant increased pattern in most of genes”.
